Measurements: patent US20240208950A1, “COMPOSITIONS AND METHODS FOR TREATMENT OF CERVICAL AND OVARIAN CANCER” (SOUTH DAKOTA BOARD OF REGENTS, priority 2021, published 2024)

Assays:
SiHa cells = assay: Cell invasion assay (Boyden chamber and xCELLigence), SiHa; format: cell-based, human
Text: FIGS. 8A and 8B show the effect of ORM-Br on invasion of CaSki (FIG. 8A) and SiHa (FIG. 8B) cell lines in Boyden chamber and xCELLigence assay. The images represent the invaded cells of control and ORM-Br-treated CaSki and SiHa cells as determined by Boyden Chamber kit. The magnification was at 20 for the images of FIGS. 8A and 8B.

[1] = tested on: HPV16 E6 and E7 transcripts in CaSki cells; assay: qPCR of HPV E6 and HPV E7 transcripts, CaSki; format: cell-based, human; details: 18 hours
Method: RNA from cervical cancer cells was isolated using Qiagen kit and quantified using NanoDrop instrument 2000 (Thermo Scientific, Waltham, MA, USA). To analyze the expression of miR-200a in control and Br-ORM treated cells, 100 ng total RNA was reverse transcribed into cDNA using specific primers designed for miRNA analysis (Applied Biosystems, Foster City, CA, USA). The expression of this miRNAs was determined by qRT-PCR using the Taqman PCR master mixture and specific primers designed for detection of mature miRNAs (Applied Biosystems). The expression of miRNA was normalized with the expression of endogenous control, RNU6B.
HPV infections are associated with a majority of cervical cancer cases. The effect of Br-ORM on the expression of HPV E6 and HPV E7 oncogenes in CaSki and SiHa cells was investigated. […] Br-ORM repressed both transcription and translation of E6 and E7 oncogene in cervical cancer cells.
FIG. 16. Effect of Br-ORM on HPV oncoproteins and tumor suppressor miR-200 in cervical cancer cells. […] Increase expression of tumor suppressor miR200a in cervical cancer cells treated with BR-ORM for 24 hours in comparison to non-treated controls was determined through real time PCR (FIG. 16A(v)-(vii)). […]

COc1ccc2c(c1)OC(C)(C)C(c1ccc(Br)cc1)C2c1ccc(OCCN2CCCC2)cc1 (centres unmarked) [ORM-Br]
cell invasion (SiHa cells): inhibits the invasion
HPV16 E6 and E7 transcripts [1]: significant downregulation
